According to patent US20190133968A1, “Applications of benzophenones in preparation of drug” (SHANXI MEDICAL UNIVERSITY, priority 2016, published 2019):

Legend:
[1] = tested on: Escherichia coli ATCC25922 standard strain; assay: urinary and renal bacterial culture of acute pyelonephritis rats; assay type: in vivo, SD rats; conditions: gavage, 10 days; for Renal bacterial culture score: mean score, scale 1-4 of Table 10 (colony number <10, >10, >100, >1000); for Urinary bacterial A value (OD600 nm): urine culture
Method: Ninety male SD rats having a weight of 180-220 g are selected, wherein: ten rats are selected as a sham-operated group (only being processed with ligation, without injecting with Escherichia coli), and the remaining rats are injected with Escherichia coli ATCC25922 standard strain having a concentration of 10^8/ml according to the method (disclosed in the Chinese Journal of Laboratory Animal Science, 1998, 8(1): pages 31-34) for preparing the acute pyelonephritis model rats.
After three days, urine of the rats is collected for bacterial culture, and the growth situation of the bacteria is observed. If the result is positive, the model rats are successively established; the unqualified rats are excluded, and the operation is made again for complementing the rats. The successively established model rats are randomly divided into the model group, the norfloxacin group (66.7 mg/kg), the LM49 solid dispersion low-dose group (with the drug concentration of 3 mg/kg), the LM49 solid dispersion medium-dose group (with the drug concentration of 9 mg/kg), the LM49 solid dispersion high-dose group (with the drug concentration of 27 mg/kg), the A8 solid dispersion low-dose group (with the drug concentration of 3 mg/kg), the A8 solid dispersion medium-dose group (with the drug concentration of 9 mg/kg), and the A8 solid dispersion high-dose group (with the drug concentration of 27 mg/kg).
The rats of the sham-operated group and the model group are administrated with the normal saline of same volume by gavage, and the rats of the other groups are respectively administrated with the drugs of the corresponding dose, once a day for consecutive ten days.
After finishing administration, urine of the rats of all groups is collected (for observing the bacterial growth situation). The abdominal aorta blood of the rats is drawn (for measuring the blood routine, CD4/CD8, urine creatinine and serum creatinine in the serum; and for measuring contents of IL-1α, IL-1β, IL-6, IL-10 and MCP-1 in the serum with the ELISA method). Two kidneys of each rat are cut (wherein a part is homogenated for bacterial culture, and the other part is used for observing the pathomorphology change).

chronic nephritis rats = assay: chronic nephritis rat model (passive Heymann nephritis); assay type: in vivo, SD rats; conditions: gavage; for IL-1α / IL-1β / IL-6 / IL-10 / Scr: serum
Method: The solid dispersions are prepared through a solvent method, comprising steps of: respectively precisely weighing LM49, PVPK30 and tween80 with a weight ratio of 1:5:1, and A8, PVPK30 and tween80 with a weight ratio of 1:4:1; dissolving with appropriate absolute ethyl alcohol, continuously stirring, and uniformly mixing; placing on the water bath at 60° C., evaporating and removing the absolute ethyl alcohol, and obtaining a viscous material; placing in the freezer at −20° C., and freezing for 2 hours; taking out from the freezer, then placing in the vacuum drying oven, and drying for 24 hours; after becoming embrittlement, smashing and sieving with a sieve of 80 meshes, and then placing in the dryer for storage.
The passive Heymann nephritis is the classic model for researching the human chronic nephrosis. Thus, the present invention researches the effects of the two disclosed compounds on preventing the chronic nephritis with the model.
Ninety male SD rats having a weight of 180-220 g are selected, wherein: ten rats are selected as a blank group, and the remaining rats are used for preparing the rat Heymann nephritis models according to the method (disclosed in Journal of Proteomics, 2012, 75(3): pages 3866-3876). The successively established model rats are randomly divided into the model group, the positive control group (dexamethasone with a concentration of 0.1 mg/kg), the LM49 solid dispersion low-dose group (with the drug concentration of 3 mg/kg), the LM49 solid dispersion medium-dose group (with the drug concentration of 9 mg/kg), the LM49 solid dispersion high-dose group (with the drug concentration of 27 mg/kg), the A8 solid dispersion low-dose group (with the drug concentration of 3 mg/kg), the A8 solid dispersion medium-dose group (with the drug concentration of 9 mg/kg), and the A8 solid dispersion high-dose group (with the drug concentration of 27 mg/kg).
The rats of the blank group and the model group are administrated with the normal saline of same volume, and the rats of the other groups are respectively administrated with the drugs of the corresponding dose, by gavage, every day from model establishment for four weeks.
The blood of the rats of all groups is drawn at the second week and the fourth week from model establishment and 24-hour urine thereof is collected, for respectively measuring the contents of the urinary albumin, serum creatinine (Scr) in the serum, BUN, IL-1α, IL-1β, IL-6 and IL-10.
The data is represented in mean±(standard deviation) (x±s) and processed with the SPSS 19.0 statistical software. The one-way analysis of variance (ANOVA) is adopted for comparison among the groups, and then the LSD-Test is adopted for pairwise comparison. The differences of P<0.05 and P<0.01 are statistically significant.

[2] = high-dose 27 mg/kg, Fourth week
[3] = high-dose 27 mg/kg, Second week
[4] = medium-dose 9 mg/kg, Fourth week
[5] = medium-dose 9 mg/kg, Second week

For `O=C(c1cc(Br)ccc1O)c1cc(O)c(O)cc1Br` [LM49, 2,5′-dibromo-4,5,2′-trihydroxyldiphenylmethanone], the “Renal bacterial culture score” value ([1]; high-dose 27 mg/kg) was 1.9 ± 0.57^ΔΔ, the “Urinary bacterial A value (OD600 nm)” value ([1]; high-dose 27 mg/kg) was 0.304 ± 0.109^Δ and the “Renal bacterial culture score” value ([1]; low-dose 3 mg/kg) was 3.9 ± 0.32^. For the same compound, the “Urinary bacterial A value (OD600 nm)” value ([1]; low-dose 3 mg/kg) was 0.353 ± 0.128^, the “Renal bacterial culture score” value ([1]; medium-dose 9 mg/kg) was 3.4 ± 0.52^Δ and the “Urinary bacterial A value (OD600 nm)” value ([1]; medium-dose 9 mg/kg) was 0.331 ± 0.100^Δ. The “24-hour urinary protein quantitation” value (chronic nephritis rats; [2]) was 9.55 ± 2.8^ΔΔ## mg/24 h, the “24-hour urinary protein quantitation” value (chronic nephritis rats; [3]) was 18.11 ± 3.2^Δ mg/24 h and the IL-1α (chronic nephritis rats; [2]) was 8.42 ± 2.76^ΔΔ pg/ml. The IL-1β (chronic nephritis rats; [2]) was 200.44 ± 59.31^Δ pg/ml, the IL-6 (chronic nephritis rats; [2]) was 77.03 ± 36.53^ΔΔ pg/ml and the IL-10 (chronic nephritis rats; [2]) was 31.42 ± 10.09 pg/mL. The Scr (chronic nephritis rats; [2]) was 46.97 ± 11.6 µmol/L, the IL-1α (chronic nephritis rats; [3]) was 11.44 ± 3.95 pg/mL and the IL-1β (chronic nephritis rats; [3]) was 227.21 ± 95.41^Δ pg/ml. For the same compound, the IL-6 (chronic nephritis rats; [3]) was 91.11 ± 40.63^ΔΔ pg/ml, the IL-10 (chronic nephritis rats; [3]) was 55.75 ± 17.61 pg/mL and the Scr (chronic nephritis rats; [3]) was 41.42 ± 10.6 µmol/L. The “24-hour urinary protein quantitation” value (chronic nephritis rats; low-dose 3 mg/kg, Fourth week) was 22.18 ± 6.3 mg/24 h, the “24-hour urinary protein quantitation” value (chronic nephritis rats; low-dose 3 mg/kg, Second week) was 34.43 ± 6.6 mg/24 h and the IL-1α (chronic nephritis rats; low-dose 3 mg/kg, Fourth week) was 13.98 ± 3.77 pg/mL. For the same compound, the IL-1β (chronic nephritis rats; low-dose 3 mg/kg, Fourth week) was 380.39 ± 80.66^ pg/ml, the IL-6 (chronic nephritis rats; low-dose 3 mg/kg, Fourth week) was 130.12 ± 45.19 pg/mL and the IL-10 (chronic nephritis rats; low-dose 3 mg/kg, Fourth week) was 60.01 ± 26.61 pg/mL. For the same compound, the Scr (chronic nephritis rats; low-dose 3 mg/kg, Fourth week) was 47.78 ± 11.2 µmol/L, the IL-1α (chronic nephritis rats; low-dose 3 mg/kg, Second week) was 14.53 ± 4.76 pg/mL and the IL-1β (chronic nephritis rats; low-dose 3 mg/kg, Second week) was 388.25 ± 72.31 pg/mL. It also gave an IL-6 (chronic nephritis rats; low-dose 3 mg/kg, Second week) of 131.23 ± 41.33 pg/mL, an IL-10 (chronic nephritis rats; low-dose 3 mg/kg, Second week) of 80.09 ± 33.11 pg/mL and a Scr (chronic nephritis rats; low-dose 3 mg/kg, Second week) of 49.44 ± 11.1 µmol/L. The “24-hour urinary protein quantitation” value (chronic nephritis rats; [4]) was 17.65 ± 5.7^ΔΔ mg/24 h, the “24-hour urinary protein quantitation” value (chronic nephritis rats; [5]) was 24.99 ± 5.0 mg/24 h and the IL-1α (chronic nephritis rats; [4]) was 12.15 ± 4.76 pg/mL. For the same compound, the IL-1β (chronic nephritis rats; [4]) was 297.55 ± 94.66^Δ pg/ml, the IL-6 (chronic nephritis rats; [4]) was 90.66 ± 40.03^Δ pg/ml and the IL-10 (chronic nephritis rats; [4]) was 51.51 ± 18.09 pg/mL. The Scr (chronic nephritis rats; [4]) was 46.57 ± 10.9 µmol/L, the IL-1α (chronic nephritis rats; [5]) was 13.62 ± 4.87 pg/mL and the IL-1β (chronic nephritis rats; [5]) was 351.11 ± 100.32 pg/mL. The IL-6 (chronic nephritis rats; [5]) was 100.15 ± 32.51 pg/mL, the IL-10 (chronic nephritis rats; [5]) was 61.31 ± 23.89 pg/mL and the Scr (chronic nephritis rats; [5]) was 45.88 ± 12.2 µmol/L.
For `O=C(c1cc(OC(=O)N2CCOCC2)c(OC(=O)N2CCOCC2)cc1Cl)c1cc(Cl)ccc1OC(=O)N1CCOCC1` [A8, 4,5,2′-tris(4-morpholinemethanoyl)-2,5′-dichlorobenzophenone], the “Renal bacterial culture score” value ([1]; high-dose 27 mg/kg) was 1.5 ± 0.33^ΔΔ, the “Urinary bacterial A value (OD600 nm)” value ([1]; high-dose 27 mg/kg) was 0.274 ± 0.113^ΔΔ and the “Renal bacterial culture score” value ([1]; low-dose 3 mg/kg) was 3.6 ± 0.57^. The “Urinary bacterial A value (OD600 nm)” value ([1]; low-dose 3 mg/kg) was 0.332 ± 0.131^, the “Renal bacterial culture score” value ([1]; medium-dose 9 mg/kg) was 2.6 ± 0.23^Δ and the “Urinary bacterial A value (OD600 nm)” value ([1]; medium-dose 9 mg/kg) was 0.304 ± 0.125^Δ. For the same compound, the “24-hour urinary protein quantitation” value (chronic nephritis rats; [2]) was 8.26 ± 1.9^ΔΔ## mg/24 h, the “24-hour urinary protein quantitation” value (chronic nephritis rats; [3]) was 14.77 ± 3.6^ΔΔ mg/24 h and the IL-1α (chronic nephritis rats; [2]) was 7.33 ± 2.14^ΔΔ pg/ml. For the same compound, the IL-1β (chronic nephritis rats; [2]) was 99.44 ± 39.74^ΔΔ# pg/ml, the IL-6 (chronic nephritis rats; [2]) was 56.95 ± 20.44^ΔΔ pg/ml and the IL-10 (chronic nephritis rats; [2]) was 40.21 ± 13.01 pg/mL. The Scr (chronic nephritis rats; [2]) was 44.55 ± 10.7 µmol/L, the IL-1α (chronic nephritis rats; [3]) was 10.69 ± 3.76 pg/mL and the IL-1β (chronic nephritis rats; [3]) was 198.20 ± 90.01^Δ pg/ml. For the same compound, the IL-6 (chronic nephritis rats; [3]) was 78.66 ± 35.92^ΔΔ pg/ml, the IL-10 (chronic nephritis rats; [3]) was 60.25 ± 22.34 pg/mL and the Scr (chronic nephritis rats; [3]) was 41.04 ± 10.1 µmol/L. For the same compound, the “24-hour urinary protein quantitation” value (chronic nephritis rats; low-dose 3 mg/kg, Fourth week) was 30.22 ± 6.8 mg/24 h, the “24-hour urinary protein quantitation” value (chronic nephritis rats; low-dose 3 mg/kg, Second week) was 32.98 ± 7.7 mg/24 h and the IL-1α (chronic nephritis rats; low-dose 3 mg/kg, Fourth week) was 12.65 ± 3.14 pg/mL. For the same compound, the IL-1β (chronic nephritis rats; low-dose 3 mg/kg, Fourth week) was 261.33 ± 76.55^ pg/ml, the IL-6 (chronic nephritis rats; low-dose 3 mg/kg, Fourth week) was 89.33 ± 29.89^Δ pg/ml and the IL-10 (chronic nephritis rats; low-dose 3 mg/kg, Fourth week) was 70.66 ± 32.28 pg/mL. It also gave a Scr (chronic nephritis rats; low-dose 3 mg/kg, Fourth week) of 47.36 ± 13.1 µmol/L, an IL-1α (chronic nephritis rats; low-dose 3 mg/kg, Second week) of 14.01 ± 3.99 pg/mL and an IL-1β (chronic nephritis rats; low-dose 3 mg/kg, Second week) of 310.21 ± 70.01 pg/mL. The IL-6 (chronic nephritis rats; low-dose 3 mg/kg, Second week) was 111.79 ± 36.28 pg/mL, the IL-10 (chronic nephritis rats; low-dose 3 mg/kg, Second week) was 89.33 ± 36.77 pg/mL and the Scr (chronic nephritis rats; low-dose 3 mg/kg, Second week) was 44.33 ± 11.1 µmol/L. For the same compound, the “24-hour urinary protein quantitation” value (chronic nephritis rats; [4]) was 15.01 ± 4.4^ΔΔ mg/24 h, the “24-hour urinary protein quantitation” value (chronic nephritis rats; [5]) was 20.02 ± 5.2^Δ mg/24 h and the IL-1α (chronic nephritis rats; [4]) was 10.10 ± 4.01 pg/mL. For the same compound, the IL-1β (chronic nephritis rats; [4]) was 192.56 ± 64.69^Δ pg/ml, the IL-6 (chronic nephritis rats; [4]) was 73.57 ± 25.60^ΔΔ pg/ml and the IL-10 (chronic nephritis rats; [4]) was 61.48 ± 24.53 pg/mL. It also gave a Scr (chronic nephritis rats; [4]) of 45.99 ± 14.4 µmol/L, an IL-1α (chronic nephritis rats; [5]) of 12.63 ± 4.56 pg/mL and an IL-1β (chronic nephritis rats; [5]) of 277.65 ± 60.39 pg/mL. The IL-6 (chronic nephritis rats; [5]) was 90.31 ± 30.41^Δ pg/ml, the IL-10 (chronic nephritis rats; [5]) was 74.55 ± 32.12 pg/mL and the Scr (chronic nephritis rats; [5]) was 45.66 ± 12.2 µmol/L.
